Experimental data taken from US6914045B2, “Glycopeptide antibiotics” (Wyeth Holdings Corporation, priority 2001, dated 2005).
In brackets after ≈: the same amount, converted by molar mass.

Key:
Test in all cases: in vitro antibacterial evaluation, MIC by broth dilution
Type in all cases: cell-based
Streptococcus sp. = conditions: broth dilution, 18 hours at 35° C.; for MIC Streptococcus pneumoniae (ATCC 6301): strain ATCC 6301; for MIC Streptococcus pneumoniae (GC 1894): strain GC 1894; for MIC Streptococcus pyogenes (GC 4563): strain GC 4563; for MIC Streptococcus agalactiae (GC 4564): strain GC 4564; for MIC Streptococcus pneumoniae (GC 4565): strain GC 4565
How it was run: (§1)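 Read-out: the lowest concentration at which the test strain fails to grow. Serial dilutions (64-0.06 μg/mL) in Muller-Hinton II […], 5×10^5 CFU/mL inoculum, NCCLS M7-A2 procedure.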

Staphylococcus sp. = conditions: broth dilution, 18 hours at 35° C.; for MIC Staphylococcus aureus (GC 1131): strain GC 1131
How it was run: as §1

Escherichia coli = system: Escherichia coli
How it was run: as §1

Enterococcus sp. = conditions: broth dilution, 18 hours at 35° C.; for MIC Enterococcus faecalis (ATCC 29212): strain ATCC 29212; for MIC Enterococcus faecalis (GC 2242): strain GC 2242; for MIC Enterococcus faecium (GC 2243): strain GC 2243; for MIC Enterococcus faecalis (GC 2691): strain GC 2691; for MIC Enterococcus faecalis (GC 3059): strain GC 3059; for MIC Enterococcus faecalis (GC 4552): strain GC 4552; for MIC Enterococcus faecalis (GC 4553): strain GC 4553; for MIC Enterococcus faecalis (GC 4554): strain GC 4554; for MIC Enterococcus faecium (GC 4556): strain GC 4556; for MIC Enterococcus faecium (GC 4557): strain GC 4557; for MIC Enterococcus avium (GC 4558): strain GC 4558; for MIC Enterococcus faecalis (GC 6189): strain GC 6189
How it was run: as §1

## CC(c1ccccc1)C1NC(=O)CNC(=O)C(CO)NC(=O)C(C(O)C2CNC(=N)N2C2OC(CO)C(O)C(O)C2O)NC(=O)C(C(O)C2CNC(=N)N2)NC(=O)C(Cc2ccc(OC3OC(CO)C(OC4OC(CO)C(O)C5OC(c6ccc(-c7ccsc7)cc6)OC45)C(O)C3O)cc2)NC1=O (stereo not drawn) [Example 164a]
Streptococcus sp.; inoculum 5×10^5 CFU/mL
  MIC Streptococcus pneumoniae (ATCC 6301): 1 µg/mL (≈ 0.682 µM)
  MIC Streptococcus pneumoniae (GC 1894): 0.25 µg/mL (≈ 0.171 µM)
  MIC Streptococcus pyogenes (GC 4563): 0.5 µg/mL (≈ 0.341 µM)
  MIC Streptococcus agalactiae (GC 4564): 1 µg/mL (≈ 0.682 µM)
  MIC Streptococcus pneumoniae (GC 4565): 1 µg/mL (≈ 0.682 µM)
Streptococcus sp.
  MIC Streptococcus pneumoniae (ATCC 6301): 1 µg/mL (≈ 0.682 µM)
  MIC Streptococcus pneumoniae (GC 1894): 0.25 µg/mL (≈ 0.171 µM)
  MIC Streptococcus pyogenes (GC 4563): 0.5 µg/mL (≈ 0.341 µM)
  MIC Streptococcus agalactiae (GC 4564): 1 µg/mL (≈ 0.682 µM)
  MIC Streptococcus pneumoniae (GC 4565): 1 µg/mL (≈ 0.682 µM)
Staphylococcus sp.; inoculum 5×10^5 CFU/mL
  MIC Staphylococcus aureus (GC 1131): 8 µg/mL (≈ 5.46 µM)
Staphylococcus sp.; strain ATCC 29213
  MIC Staphylococcus aureus (ATCC 29213): 8 µg/mL (≈ 5.46 µM)
Staphylococcus sp.
  MIC Staphylococcus aureus (GC 1131): 8 µg/mL (≈ 5.46 µM)
Staphylococcus sp.; strain GC 3051
  MIC Staphylococcus aureus (GC 3051): 8 µg/mL (≈ 5.46 µM)
Staphylococcus sp.; strain GC 3053
  MIC Staphylococcus aureus (GC 3053): 8 µg/mL (≈ 5.46 µM)
Staphylococcus sp.; strain GC 4541
  MIC Staphylococcus aureus (GC 4541): 8 µg/mL (≈ 5.46 µM)
Staphylococcus sp.; strain GC 4542
  MIC Staphylococcus aureus (GC 4542): 16 µg/mL (≈ 10.9 µM)
Staphylococcus sp.; strain GC 4543
  MIC Staphylococcus aureus-SMITH (GC 4543): 8 µg/mL (≈ 5.46 µM)
Staphylococcus sp.; strain GC 4544
  MIC Staphylococcus aureus (GC 4544): 8 µg/mL (≈ 5.46 µM)
Staphylococcus sp.; strain GC 4545
  MIC Staphylococcus aureus (GC 4545): 8 µg/mL (≈ 5.46 µM)
Staphylococcus sp.; strain GC 4546
  MIC Staphylococcus haemolyticus (GC 4546): 4 µg/mL (≈ 2.73 µM)
Staphylococcus sp.; strain GC 4547
  MIC Coagulase Negative Staphylococcus (GC 4547): 8 µg/mL (≈ 5.46 µM)
Staphylococcus sp.; strain GC 4548
  MIC Coagulase Negative Staphylococcus (GC 4548): 4 µg/mL (≈ 2.73 µM)
Staphylococcus sp.; strain GC 4549
  MIC Coagulase Negative Staphylococcus (GC 4549): 4 µg/mL (≈ 2.73 µM)
Staphylococcus sp.; strain GC 4551
  MIC Coagulase Negative Staphylococcus (GC 4551): 8 µg/mL (≈ 5.46 µM)
Staphylococcus sp.; strain GC 6257
  MIC Coagulase Negative Staphylococcus (GC 6257): 4 µg/mL (≈ 2.73 µM)
Staphylococcus sp.; strain SMITH GC 4543
  MIC Staphylococcus aureus-SMITH (GC 4543): 8 µg/mL (≈ 5.46 µM)
Escherichia coli; strain ATCC 25922, 18 hours at 35° C.
  MIC Escherichia coli (ATCC 25922): 32 µg/mL (≈ 21.8 µM)
Escherichia coli; strain GC 4559, 18 hours at 35° C.
  MIC Escherichia coli (GC 4559): 32 µg/mL (≈ 21.8 µM)
Escherichia coli; strain GC 4560, 18 hours at 35° C.
  MIC Escherichia coli (GC 4560): 8 µg/mL (≈ 5.46 µM)
Enterococcus sp.; inoculum 5×10^5 CFU/mL
  MIC Enterococcus faecalis (ATCC 29212): 16 µg/mL (≈ 10.9 µM)
  MIC Enterococcus faecalis (GC 2242): 16 µg/mL (≈ 10.9 µM)
  MIC Enterococcus faecium (GC 2243): 8 µg/mL (≈ 5.46 µM)
  MIC Enterococcus faecalis (GC 2691): 16 µg/mL (≈ 10.9 µM)
  MIC Enterococcus faecalis (GC 3059): 16 µg/mL (≈ 10.9 µM)
  MIC Enterococcus faecalis (GC 4552): 16 µg/mL (≈ 10.9 µM)
  MIC Enterococcus faecalis (GC 4553): 16 µg/mL (≈ 10.9 µM)
  MIC Enterococcus faecalis (GC 4554): 16 µg/mL (≈ 10.9 µM)
  MIC Enterococcus faecium (GC 4556): 16 µg/mL (≈ 10.9 µM)
  MIC Enterococcus faecium (GC 4557): 4 µg/mL (≈ 2.73 µM)
  MIC Enterococcus avium (GC 4558): 8 µg/mL (≈ 5.46 µM)
  MIC Enterococcus faecalis (GC 6189): 16 µg/mL (≈ 10.9 µM)
Enterococcus sp.
  MIC Enterococcus faecalis (ATCC 29212): 16 µg/mL (≈ 10.9 µM)
  MIC Enterococcus faecalis (GC 2242): 16 µg/mL (≈ 10.9 µM)
  MIC Enterococcus faecium (GC 2243): 8 µg/mL (≈ 5.46 µM)
  MIC Enterococcus faecalis (GC 2691): 16 µg/mL (≈ 10.9 µM)
  MIC Enterococcus faecalis (GC 3059): 16 µg/mL (≈ 10.9 µM)
  MIC Enterococcus faecalis (GC 4552): 16 µg/mL (≈ 10.9 µM)
  MIC Enterococcus faecalis (GC 4553): 16 µg/mL (≈ 10.9 µM)
  MIC Enterococcus faecalis (GC 4554): 16 µg/mL (≈ 10.9 µM)
  MIC Enterococcus faecium (GC 4556): 16 µg/mL (≈ 10.9 µM)
  MIC Enterococcus faecium (GC 4557): 4 µg/mL (≈ 2.73 µM)
  MIC Enterococcus avium (GC 4558): 8 µg/mL (≈ 5.46 µM)
  MIC Enterococcus faecalis (GC 6189): 16 µg/mL (≈ 10.9 µM)
